EC50 and IC50 data for 20 compounds are collected here from patent US20170210751A1, “PRMT5 INHIBITORS AND USES THEREOF” (Epizyme, Inc., priority 2014, published 2017).

Assay [1] relates to Z-138 cell line. Nature of the assay: Z-138 Proliferation Assay (Cell Titer Glo). The settings on record: Homo sapiens, 120 h; Z-138 cells, 5 days incubation, ATP (Cell Titer Glo). Type of assay: cell-based. An excerpt: Z-138 Proliferation Assay
Z-138 suspension cells were purchased from ATCC (American Type Culture Collection, Manassas, Va.). RPMI/Glutamax medium, penicillin-streptomycin, heat inactivated fetal bovine serum were purchased from Life Technologies, Grand Island, N.Y., USA. V-bottom polypropylene 384-well plates were purchased from Greiner Bio-One, Monroe, N.C., USA. Cell culture 384-well white opaque plates were purchased from Perkin Elmer, Waltham, Mass., USA. Cell-Titer Glo® was purchased from Promega Corporation, Madison, Wis., USA. SpectraMax M5 plate reader was purchased from Molecular Devices LLC, Sunnyvale, Calif., USA.
Z-138 suspension cells were maintained in growth medium (RPMI 1640 supplemented with 10% v/v heat inactivated fetal bovine serum and cultured at 37° C. under 5% CO2. Under assay conditions, cells were incubated in assay medium (RPMI 1640 supplemented with 10% v/v heat inactivated fetal bovine serum and 100 units/mL penicillin-streptomycin) at 37° C. under 5% CO2.
For the assessment of the effect of compounds on the proliferation of the Z-138 cell line, exponentially growing cells were plated in 384-well white opaque plates at a density of 10,000 cells/ml in a final volume of 50 μl of assay medium. A compound source plate was prepared by performing triplicate nine-point 3-fold serial dilutions in DMSO, beginning at 10 mM (final top concentration of compound in the assay was 20 μM and the DMSO was 0.2%). A 100 nL aliquot from the compound stock plate was added to its respective well in the cell plate. […] After addition of compounds, assay plates were incubated for 5 days at 37° C., 5% CO2, relative humidity >90%.
Cell viability was measured by quantitation of ATP present in the cell cultures, adding 35 μl of Cell Titer Glo® reagent to the cell plates. Luminescence was read in the SpectraMax M5 microplate reader. The concentration of compound inhibiting cell viability by 50% was determined using a 4-parametric fit of the normalized dose response curves.
(In general: ATP-based viability assays read luminescence as a measure of living cells.)

Assay [2] has as its target T1, PRMT5/MEP50 (Homo sapiens, UniProt O14744).
T1 construct: Flag-PRMT5; made in house; host or cells: Spodoptera frugiperda (SF9) insect cells, baculovirus (pDEST8)
Nature of the assay: PRMT5 Biochemical Assay (PRMT5/MEP50 enzyme assay on peptide substrate, 3H-SAM Flashplate). The settings on record: PRMT5/MEP50 4 nM, 3H-SAM 75 nM, peptide 40 nM, 30 min preincubation at 25 degrees Celsius. The source says:
S-adenosylmethionine (SAM), S-adenosylhomocysteine (SAH), bicine, KCl, Tween20, dimethylsulfoxide (DMSO), bovine skin gelatin (BSG), and Tris(2-carboxyethyl)phosphine hydrochloride solution (TCEP) were purchased from Sigma-Aldrich at the highest level of purity possible. ^3H-SAM was purchase from American Radiolabeled Chemicals with a specific activity of 80 Ci/mmol. 384-well streptavidin Flashplates were purchased from PerkinElmer.
Peptide representative of human histone H4 residues 1-15 was synthesized with a C-terminal linker-affinity tag motif and a C-terminal amide cap by 21st Century Biochemicals. The peptide was high high-performance liquid chromatography (HPLC) purified to greater than 95% purity and confirmed by liquid chromatography mass spectrometry (LC-MS). The sequence was Ac-[…][K-Biot]-amide (SEQ ID NO.:3).
Full-length human PRMT5 (NM_006109.3) transcript variant 1 clone was amplified from a fetal brain cDNA library, incorporating flanking 5′ sequence encoding a FLAG tag ([…]) (SEQ ID NO.:4) fused directly to Ala 2 of PRMT5. Full-length human MEP50 (NM_024102) clone was amplified from a human testis cDNA library incorporating a 5′ sequence encoding a 6-histidine tag (MHHHHHH) (SEQ ID NO.:5) fused directly to Arg 2 of MEP50. The amplified genes were sublconed into pENTR/D/TEV (Life Technologies) and subsequently transferred by Gateway™ attL×attR recombination to pDEST8 baculvirus expression vector (Life Technologies).
Recombinant baculovirus and Baculovirus-Infected Insect Cells (BIIC) were generated according to Bac-to-Bac kit instructions (Life Technologies) and Wasilko, 2006, respectively. Protein over-expression was accomplished by infecting exponentially growing Spodoptera frugiperda (SF9) cell culture at 1.2×10^6 cell/ml with a 5000 fold dilution of BIIC stock. Infections were carried out at 27° C. for 72 hours, harvested by centrifugation, and stored at −80° C. for purification.
Flag-PRMT5/6His-MeP50 was eluted with 300 mM Imidazole in the same buffer. The purity of recovered protein was 87%. Reference: Wasilko, D. J. and S. E. Lee: “TIPS: titerless infected-cells preservation and scale-up” Bioprocess J., 5 (2006), pp. 29-32.
General Procedure for PRMT5/MEP50 Enzyme Assays on Peptide Substrates.
The assays were all performed in a buffer consisting of 20 mM Bicine (pH=7.6), 1 mM TCEP, 0.005% BSG, and 0.002% Tween20, prepared on the day of use. Compounds in 100% DMSO (1 ul) were spotted into a polypropylene 384-well V-bottom plates (Greiner) using a Platemate Plus outfitted with a 384-channel head (Thermo Scientific). DMSO (1 ul) was added to Columns 11, 12, 23, 24, rows A-H for the maximum signal control and 1 ul of SAH, a known product and inhibitor of PRMT5/MEP50, was added to columns 11, 12, 23, 24, rows I-P for the minimum signal control. A cocktail (40 ul) containing the PRMT5/MEP50 enzyme and the peptide was added by Multidrop Combi (Thermo-Fisher). The compounds were allowed to incubate with PRMT5/MEP50 for 30 min at 25 degrees Celsius, then a cocktail (10 ul) containing ^3H-SAM was added to initiate the reaction (final volume=51 ul). The final concentrations of the components were as follows: PRMT5/MEP50 was 4 nM, ^3H-SAM was 75 nM, peptide was 40 nM, SAH in the minimum signal control wells was 100 uM, and the DMSO concentration was 1%. The assays were stopped by the addition of non-radioactive SAM (10 ul) to a final concentration of 600 uM, which dilutes the ^3H-SAM to a level where its incorporation into the peptide substrate is no longer detectable. 50 ul of the reaction in the 384-well polypropylene plate was then transferred to a 384-well Flashplate and the biotinylated peptides were allowed to bind to the streptavidin surface for at least 1 hour before being washed three times with 0.1% Tween20 in a Biotek ELx405 plate washer. […]

Where only a bound is given, the exact number is not on record here.

T1 sequence (O14744 with tags, fused parts or gaps): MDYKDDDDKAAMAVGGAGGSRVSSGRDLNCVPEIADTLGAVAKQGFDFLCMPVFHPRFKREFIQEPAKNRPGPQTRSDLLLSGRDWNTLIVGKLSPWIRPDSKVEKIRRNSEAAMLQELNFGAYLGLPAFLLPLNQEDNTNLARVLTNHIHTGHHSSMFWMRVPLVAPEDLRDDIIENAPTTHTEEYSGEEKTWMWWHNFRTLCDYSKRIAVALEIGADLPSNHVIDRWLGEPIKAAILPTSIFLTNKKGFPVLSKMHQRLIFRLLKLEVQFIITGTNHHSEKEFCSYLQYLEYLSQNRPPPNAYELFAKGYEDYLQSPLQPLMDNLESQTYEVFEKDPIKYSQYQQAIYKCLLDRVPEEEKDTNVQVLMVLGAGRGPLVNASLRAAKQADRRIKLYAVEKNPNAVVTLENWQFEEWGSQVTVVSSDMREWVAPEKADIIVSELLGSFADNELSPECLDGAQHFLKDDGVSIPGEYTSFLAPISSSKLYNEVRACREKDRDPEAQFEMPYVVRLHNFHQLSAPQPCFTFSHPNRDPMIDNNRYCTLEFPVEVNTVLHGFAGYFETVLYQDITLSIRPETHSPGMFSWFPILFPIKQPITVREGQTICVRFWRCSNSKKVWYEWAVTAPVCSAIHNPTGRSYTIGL
T1 sequence (Q9BQA1 with tags, fused parts or gaps partner limits assumed): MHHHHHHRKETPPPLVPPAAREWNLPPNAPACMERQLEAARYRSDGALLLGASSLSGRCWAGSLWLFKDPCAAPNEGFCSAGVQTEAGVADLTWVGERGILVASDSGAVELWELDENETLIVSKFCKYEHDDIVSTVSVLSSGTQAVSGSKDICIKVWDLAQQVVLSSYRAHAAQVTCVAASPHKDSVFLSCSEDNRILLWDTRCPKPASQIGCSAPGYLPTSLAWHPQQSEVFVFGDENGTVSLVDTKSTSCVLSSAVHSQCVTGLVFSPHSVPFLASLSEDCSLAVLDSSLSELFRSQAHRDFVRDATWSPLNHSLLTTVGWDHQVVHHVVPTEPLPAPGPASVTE

One may read the EC50 as the concentration giving half of the maximal effect. High values mean a need for much substance, low ones an effect from little substance. What is called IC50 is the concentration that gives 50% inhibition. Turning to `CC(=O)N1CCC(Nc2cc(C(=O)NC[C@H](O)CN3CCc4ncn(C)c4C3)ccn2)CC1` [Compound 3-24, (S)-2-((1-acetylpiperidin-4-yl)amino)-N-(2-hydroxy-3-(3-methyl-6,7-dihydro-3H-imidazo[4,5-c]pyridin-5(4H)-yl)propyl)isonicotinamide], the EC50 in assay [1] was over 5 µM. Also, the IC50 in assay [2] was over 10 µM.
For `CC(=O)N1CCC(Nc2cc(C(=O)NC[C@H](O)CN3CCc4c(cnn4C)C3)ncn2)CC1` [Compound 3-56] the same measures were over 5 µM and over 10 µM.
For `O=C(COc1cccc2cccnc12)NCC(O)CN1CCc2ccncc2C1` (stereo not shown) [Compound 2-8, N-[2-hydroxy-3-(1,2,3,4-tetrahydro-2,7-naphthyridin-2-yl)propyl]-2-(quinolin-8-yloxy)acetamide] the same measures were over 5 µM and 1 to 10 µM.
For `CC(=O)N1CC(Nc2cc(C(=O)NC[C@H](O)CN3CCc4scc(C)c4C3)ncn2)C1` [Compound 1-12, (S)-6-((1-acetylazetidin-3-yl)amino)-N-(2-hydroxy-3-(3-methyl-6,7-dihydrothieno[3,2-c]pyridin-5(4H)-yl)propyl)pyrimidine-4-carboxamide] the same measures were 0.101 to 1 µM and under 0.1 µM.
For the compound `CC(=O)N1CCC(Nc2cc(C(=O)NC[C@H](O)CN3CCc4nn(C)cc4C3)ccn2)CC1` [Compound 3-53], the concentration giving a half-maximal response (EC50) in assay [1] was over 5 µM. In addition, in assay [2], the IC50 lay within 1 to 10 µM.
In assay [1], `CC(=O)N1CC(Nc2cc(C(=O)NC[C@H](O)CN3CCc4[nH]cnc4C3)ncn2)C1` [Compound 3-33, (S)-6-((1-acetylazetidin-3-yl)amino)-N-(3-(6,7-dihydro-1H-imidazo[4,5-c]pyridin-5(4H)-yl)-2-hydroxypropyl)pyrimidine-4-carboxamide] came in with an EC50 of over 5 µM. Besides, the IC50 in assay [2] was over 10 µM.
As for `CC(=O)N1CCC(Nc2cc(C(=O)NC[C@H](O)CN3CCc4nn(C)cc4C3)ncn2)CC1` [Compound 3-57], the EC50 in assay [1] is over 5 µM. In assay [2], the IC50 is over 10 µM.
In the same order, the values of `O=C(NC[C@H](O)CN1CCc2[nH]cnc2C1)c1cc(NC2COC2)ncn1` [Compound 3-38, (S)—N-(3-(6,7-dihydro-1H-imidazo[4,5-c]pyridin-5(4H)-yl)-2-hydroxypropyl)-6-(oxetan-3-ylamino)pyrimidine-4-carboxamide] are over 5 µM and over 10 µM.
For `CC(=O)N1CCC(Nc2cc(C(=O)NC[C@H](O)CN3CCc4ccncc4C3)ncn2)CC1` [Compound 2-23, (S)-6-((1-acetylpiperidin-4-yl)amino)-N-(3-(3,4-dihydro-2,7-naphthyridin-2(1H)-yl)-2-hydroxypropyl)pyrimidine-4-carboxamide] the same measures were over 5 µM and 1 to 10 µM.
Take `CC(=O)N1CCC(Nc2cc(C(=O)NC[C@H](O)CN3CCc4c(ncn4C)C3)ncn2)CC1` [Compound 3-35, (S)-6-((1-acetylpiperidin-4-yl)amino)-N-(2-hydroxy-3-(1-methyl-6,7-dihydro-1H-imidazo[4,5-c]pyridin-5(4H)-yl)propyl)pyrimidine-4-carboxamide]: in assay [1], the EC50 is over 5 µM. Besides, the IC50 in assay [2] is over 10 µM.
For `CC(=O)N1CCC(Nc2cc(C(=O)NC[C@H](O)CN3CCc4c(cnn4C)C3)ccn2)CC1` [Compound 3-52] the same measures were over 5 µM and 1 to 10 µM.
For `CC(=O)N1CCC(Nc2cc(C(=O)NC[C@H](O)CN3CCc4scnc4C3)ccn2)CC1` [Compound 1-30] the same measures were over 5 µM and 1 to 10 µM.
For `O=C(NC[C@H](O)CN1CCc2[nH]nc(-c3ccccc3)c2C1)c1cc(NC2COC2)ncn1` [Compound 3-17, (S)—N-(2-hydroxy-3-(3-phenyl-6,7-dihydro-1H-pyrazolo[4,3-c]pyridin-5(4H)-yl)propyl)-6-(oxetan-3-ylamino)pyrimidine-4-carboxamide] the same measures were over 5 µM and over 10 µM.
Consider `O=C(COc1cccc2cccnc12)NCC(O)CN1CCc2ncccc2C1` (stereo not shown) [Compound 2-6, N-[2-hydroxy-3-(5,6,7,8-tetrahydro-1,6-naphthyridin-6-yl)propyl]-2-(quinolin-8-yloxy)acetamide], for which, in assay [1], the EC50 is over 5 µM. For the same compound, the IC50 in assay [2] was in the range of 1 to 10 µM.
Take `Cn1cc2c(n1)CCN(C[C@@H](O)CNC(=O)c1cc(NC3COC3)ncn1)C2` [Compound 3-27]: the EC50 in assay [1] is over 5 µM. Also, the IC50 in assay [2] was over 10 µM.
For the compound `CC(=O)N1CCC(Nc2cc(C(=O)NC[C@H](O)CN3CCc4sc(N)nc4C3)ncn2)CC1` [Compound 1-37], the EC50 in assay [1] was over 5 µM. Besides, the IC50 in assay [2] lay within 1 to 10 µM.
Take `CC(=O)N1CC(Nc2cc(C(=O)NC[C@H](O)CN3CCc4cn[nH]c4C3)ncn2)C1` [Compound 3-44]: the EC50 in assay [1] is over 5 µM. In addition, in assay [2], the IC50 is over 10 µM.
Regarding `O=C(COc1cccc2cccnc12)NCC(O)CN1CCc2cccnc2C1` (stereo not shown) [Compound 2-5, N-[2-hydroxy-3-(5,6,7,8-tetrahydro-1,7-naphthyridin-7-yl)propyl]-2-(quinolin-8-yloxy)acetamide], in assay [1], the EC50 is over 5 µM. Also, in assay [2], the IC50 lay within 1 to 10 µM.
In the same order, the values of `CC(=O)N1CCC(Nc2cc(C(=O)NC[C@H](O)CN3CCc4sc(C)nc4C3)ncn2)CC1` [Compound 1-36] are over 5 µM and 1 to 10 µM.
In the same order, the values of `Cc1csc2c1CN(C[C@@H](O)CNC(=O)c1cc(NC3COC3)ncn1)CC2` [Compound 1-11, (S)—N-(2-hydroxy-3-(3-methyl-6,7-dihydrothieno[3,2-c]pyridin-5(4H)-yl)propyl)-6-(oxetan-3-ylamino)pyrimidine-4-carboxamide] are 1 to 10 µM and 0.101 to 1 µM.
